In patent US20170183306A1, “CYCLIC COMPOUNDS HAVING A 1,3 DIAMINO-FUNCTIONALITY FOR USE IN THE TREATMENT OF HIV INFECTION” (Universite Paris Descartes, priority 2014, published 2017):
Read-outs that look alike come from different tables or passages of the source.

How the values were obtained:
[1] = cited from earlier work
[2] = system: HeLa-p4 cells; assay: Cell viability assay (MTS) on HeLa-p4 cells; assay type: cell-based; conditions: cell viability
Outline: (§1)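 HeLa CD4 LTR-LacZ cells infected with 1 ng p24 of wild-type NL4-3 alongside graded compound concentrations; β-galactosidase measured 48 h post-infection by CPRG colorimetry, expressed as percent of untreated virus control. Viability assessed by MTS absorbance at […].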

[3] = system: wild type NL4-3 virus (HIV-1) in HeLa-p4 cells; assay: HeLa-p4 single-cycle HIV-1 infectivity, beta-galactosidase CPRG test; assay type: cell-based; conditions: Human immunodeficiency virus 1, NL43, HeLaP4, 48 hours after infection, control = NL4-3 virus alone; for activity at 50 µM: read-out: Hela-p4 CPRG 50 μM; for activity at 100 µM: read-out: Hela-p4 CPRG 100 μM
Outline: as §1

[4] = system: HIV in T CD4+ cells from HIV-infected patients; assay: HIV production by CD4+ T cells of HIV-infected, antiretroviral-treated, aviremic patients (real time PCR); assay type: cell-based, HIV-1; conditions: one line per patient; for Compound: ratio of the viral load of interest/viral load of negative control: compound alone
From the text: For experiments using primary cells obtained from HIV-infected, antiretroviral-treated, aviremic patients, total CD4+ cells are isolated by a MACS) Whole Blood MicroBead Technology (Miltenyi). Briefly, T CD4+ cells from whole blood are magnetically labeled with MACS MicroBeads and specific antibodies. Cells are separated in a MACS Column placed in a MACS Separator. The flow-through fraction can be collected as the negative fraction depleted of the labeled cells. The column is removed from the separator and the retained cells are eluted as the enriched, positively selected cell fraction. The T CD4+ cells were then cultured with a T cell activation/expansion kit (Miltenyi). The cells are activated for up to 3 days with Anti-Biotin MACSiBead Particle conjugated to monoclonal anti-biotin antibodies (anti CD2-biotin, […] and anti CD28-biotin). Expansion is achieved by adding IL-2 and fresh medium for 4 days. Then, these T CD4+ cells are considered as positive culture. A negative control was the same proportion of cells cultured without stimuli like antibodies and IL-2. The T CD4+ cells were cultured with compounds alone or in combination with antibodies or IL-2. The HIV production in cell culture media was measured by real time PCR (Cobas AmpliPrep/Cobas Taqman HIV-1 test, V2.0, Roche). The results are expressed in table 2 as a ratio of the viral load of interest/viral load of negative control or as a ratio of the viral load of interest/viral load of positive control.

[5] = system: J-Lat cells; assay: J-Lat cells, percentage of GFP-positive cells by cytometry; assay type: cell-based; conditions: 24 h, compound alone
Outline: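 J-Lat cells (5.105 per well, RPMI/10% FBS) treated 24 h with compound alone at 37 °C. After PFA fixation, GFP-positive cells counted by flow cytometry and reported as percentage of living fluorescent cells.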

[6] = system: Laï virus in MT2 cells (human lymphocytic cell line); assay: MT2 cells infected with Laï virus, real-time PCR of viral RNA of the supernatant; assay type: cell-based, HIV-1; conditions: for viral RNA of the supernatant, 10 μM / viral RNA of the supernatant, 25 μM / viral RNA of the supernatant, 50 μM / viral RNA of the supernatant, 100 μM: 3 days of culture, control = virus without any added compound; for viral replication in human lymphocytes (in words): summary of Table 3
Experimental: In an experiment, MT2 cells (human lymphocytic cell line) are infected with the Laï virus to a multiplicity of infection of 0.3 and incubated with compounds A, B, C or D at four different concentrations.
After 3 days of culture, real-time PCR quantification of the viral RNA of the supernatant is performed (COBAS Ampliprep/COBAS TaqMan HIV-1 assay, version 2).
The results are expressed as percentage of control (virus without any added compound) in Table 3.

[7] = system: HIV; conditions: cited from earlier work

Cc1[nH]c2ccccc2c1CCNCc1ccc(/C=C/C(=O)NO)cc1 [LBH589]
adverse effects in clinical trials ([1]; in vivo): important adverse effects

N[C@@H]1CNC[C@H](N)C1 [ECO01-025-C2, piperidine-3,5-diamine]
Hela-p4 MTS 50 μM [2]: 104 | Hela-p4 MTS 100 μM [2]: 79 | Hela-p4 MTS 200 μM [2]: 70 | activity at 50 µM [3]: 166% | activity at 100 µM [3]: 280% | activity at 200 µM [3]: 317% | Compound: ratio of the viral load of interest/viral load of negative control [4]: 1 | J-lat 50 μM [5]: 0.7 percentage of the living fluorescent cells

COC(=O)C(Cc1ccccc1)N1C[C@H](N)C[C@H](N)C1 (stereo partly shown) [Compound B]
viral RNA of the supernatant, 10 μM [6]: 420 percentage of control | viral RNA of the supernatant, 25 μM [6]: 40 percentage of control | viral RNA of the supernatant, 50 μM [6]: 70 percentage of control | viral RNA of the supernatant, 100 μM [6]: 32400 percentage of control | viral replication in human lymphocytes (in words) [6]: induce viral replication at an extremely high level

CCN(CC)C(=S)SSC(=S)N(CC)CC [Disulfirame]
capacity to induce HIV replication in clinical trial [7]: low capacity to induce HIV replication

N[C@@H]1C[C@H](N)CN(c2ccc(NC(=O)c3ccccc3)c(O)c2)C1 [Compound C]
viral RNA of the supernatant, 10 μM [6]: 21200 percentage of control | viral RNA of the supernatant, 25 μM [6]: 83500 percentage of control | viral RNA of the supernatant, 50 μM [6]: 66400 percentage of control | viral RNA of the supernatant, 100 μM [6]: 931700 percentage of control | viral replication in human lymphocytes (in words) [6]: induce viral replication at an extremely high level

COc1ccc(CCN2C[C@H](N)C[C@H](N)C2)cc1OC [Compound A]
viral RNA of the supernatant, 10 μM [6]: 130 percentage of control | viral RNA of the supernatant, 25 μM [6]: 60 percentage of control | viral RNA of the supernatant, 50 μM [6]: 50 percentage of control | viral RNA of the supernatant, 100 μM [6]: 73200 percentage of control | viral replication in human lymphocytes (in words) [6]: induce viral replication at an extremely high level

O=C(CCCCCCC(=O)Nc1ccccc1)NO [vorinostat]
adverse effects in clinical trials ([1]; first results of on-going clinical trials): important adverse effects

C/C=C1\NC(=O)[C@H]2CSSCC/C=C/[C@H](CC(=O)N[C@H](C(C)C)C(=O)N2)OC(=O)[C@H](C(C)C)NC1=O [Romidepsin]
adverse effects in clinical trials ([1]; in vivo): important adverse effects

CC(C)(C)OC(=O)N[C@@H]1CNC[C@H](NC(=O)OC(C)(C)C)C1 [ECO02-051-C]
Hela-p4 MTS 50 μM [2]: 95 | Hela-p4 MTS 100 μM [2]: 96 | Hela-p4 MTS 200 μM [2]: 77 | activity at 50 µM [3]: 124% | activity at 100 µM [3]: 200% | activity at 200 µM [3]: 397% | Compound: ratio of the viral load of interest/viral load of negative control [4]: 1 | Compound + IL2: ratio of the viral load of interest/viral load of negative control ([4]; compound in combination with IL2): 1 | J-lat 50 μM [5]: 1.1 percentage of the living fluorescent cells

COc1cccc(CCN2C[C@@H](N)C[C@@H](NC(=O)OC(C)(C)C)C2)c1 [ECO02-078-C]
Hela-p4 MTS 50 μM [2]: 105 | Hela-p4 MTS 100 μM [2]: 103 | Hela-p4 MTS 200 μM [2]: 25 | activity at 50 µM [3]: 251% | activity at 100 µM [3]: 390% | activity at 200 µM [3]: 145% | J-lat 50 μM [5]: 0.8 percentage of the living fluorescent cells

COc1ccc2[nH]cc(CCN3C[C@H](N)C[C@H](N)C3)c2c1 [AB-84, (3S,5R)-1-(2-(5-methoxy-1H-indol-3-yl)ethyl)piperidine-3,5-diamine]
Hela-p4 MTS 50 μM [2]: 62 | Hela-p4 MTS 100 μM [2]: 60 | activity at 50 µM [3]: 112% | activity at 100 µM [3]: 75% | J-lat 50 μM [5]: 0.1 percentage of the living fluorescent cells | J-lat 100 μM ([5]; 100 μM): 6.9 percentage of the living fluorescent cells
